The values that follow are results of earlier work, collected in paper PMC3468400, “Pharmacokinetic profiles of artesunate following multiple intravenous doses of 2, 4, and 8 mg/kg in healthy volunteers: Phase 1b study” (Malaria Journal, 2012).

Structures are written as SMILES.

The conditions of this series: human, in vivo, po; cited from earlier work.

As for `C[C@H]1[C@H](OC(=O)CCC(=O)O)O[C@@H]2O[C@@]3(C)CC[C@H]4[C@H](C)CC[C@@H]1[C@@]24OO3` [AS, 4-(10’dihydro-artemisinin-oxymethyl) succinate], the “Cmax and AUC on the last dose day as compared to the first day” value is “about one-third to one-seventh”.
